Assay results reported in patent publication EP4534539A1, “DIDEUTERATED CAMPTOTHECIN DERIVATIVE AND PREPARATION METHOD THEREFOR” (priority 2022, dated 2023).
pIC50: −log10 of the molar value. Where two headings read alike, the source gives them in different places.

Legend:
MDA-MB-468 cells = assay: Inhibitory activity on MDA-MB-468 cells (MTT); assay type: cell-based; details: for pIC50: Homo sapiens, read-out: MDA-MB-468 IC50
Protocol: (§1) MDA-MB-468 cells (purchased from ATCC) were cultured in L-15 culture medium (purchased from Sigma-Aldrich), NCI-N87 cells (purchased from ATCC) were cultured in RPMI-1640 culture medium (purchased from Gibco), and HT29 cells (purchased from ATCC) were cultured in McCoy's 5A culture medium (purchased from Gibco), each of which was supplemented with 10% fetal bovine serum and 1% penicillin-streptomycin solution, and placed in a 5% CO2 incubator at 37°C. The cells were seeded in 96-well plates at 3000 cells per well and cultured overnight. Different concentrations of drugs were respectively added, and the cells were placed in a normal incubator (21% O2, 5% CO2, and 74% N2) and cultured for 72 h. 100 µL of culture medium was removed. 10 µL of MTT solution (5 mg/mL) was added. Then the cells were cultured in the incubator for 4 hours. 50 µL of triple combination solution (10% SDS, 5% isobutanol, and 0.012 mol/L HCl) was added. The cells were placed in the incubator overnight. OD values were measured at 540 nm wavelength, and median inhibition concentration IC50 of the drug on tumor cell growth was calculated (n=3).

[1] = Pharmacokinetic test - rats; set-up: species or system SD rats; details: in vivo, 3 mg/kg, Rat PK, IV, 3 mpk, single injection, plasma; for Vd: read-out: Vz
Protocol: Experimental objective: To evaluate the pharmacokinetic characteristics of the compound of the present application in rats.
SD rats (Beijing Vital River Laboratory Animal Technology Co., Ltd.) were randomly divided, 6 rats/group, half male and half female, and were injected once with a sample (10% DMSO-90% (20% 2-hydroxypropyl-β-cyclodextrin-physiological saline), diluted according to the dose). Plasma samples were respectively taken before administration, and at 5 min, 30 min, 1 h, 2 h, 4 h, 6 h, 8 h, 10 h, and 24 h after administration. The sample concentration in plasma was determined by LC-MS method, and pharmacokinetic parameters were calculated (see Table 4). Table 4 Pharmacokinetic characteristics of the compound of the present application in SD rats

[2] = assay type: in vivo; details: SD rats, intravenous administration once a day for 7 consecutive days; result in words
Text: The possible toxic reactions and severity thereof of the drug on SD rats were observed after continuous intravenous administration for 7 days. The toxicity of the compound in rodents was preliminarily evaluated. SD rats (Beijing Vital River Laboratory Animal Technology Co., Ltd.) were randomly divided, 6 rats/group, half male and half female, and injected with samples (preparation: 10% DMSO-90% (20% 2-hydroxypropyl-β-cyclodextrin-physiological saline), diluted according to the dose) once a day for 7 consecutive days. Weight and food intake were monitored every two days, and the status of the animals was observed. Blood samples were taken 24 h after the last dose for hematology, blood biochemistry and coagulation indexes.

HCT116 cells = assay: HCT-116 cell inhibitory activity test (MTT); assay type: cell-based; details: Homo sapiens, read-out: IC50 Activity
Protocol: HCT116 cells (purchased from ATCC) were cultured in a 5% CO2 incubator at 37 °C using DMEM culture medium (purchased from Gibco) supplemented with 10% fetal bovine serum and 1% penicillin-streptomycin solution. The cells were seeded in 96-well plates at 3000 cells per well and cultured overnight. Different concentrations of drugs were respectively added, and the cells were placed in a normal incubator (21 % O2, 5% CO2, and 74% N2) and cultured for 72 h. 100 µL of culture medium was removed. 10 µL of MTT solution (5 mg/mL) was added. Then the cells were cultured in the incubator for 4 hours. 50 µL of triple combination solution (10% SDS, 5% isobutanol, and 0.012 mol/L HCl) was added. The cells were placed in the incubator overnight. OD values were measured at 540 nm wavelength, and median inhibition concentration IC50 of the drug on tumor cell growth was calculated (n=3). Compounds with activity designated as "A" provide IC50≤10nM. Compounds with activity designated as "B" provide IC50 of 10 nM to 100 nM. Compounds with activity designated as "C" provide IC50 of 100 nM to 1000 nM. Compounds with activity designated as "D" provide IC50 of 1000 nM to 10000 nM. Titer (nM); Efficacy (IC50).

NCI-N87 cells = assay: Inhibitory activity on NCI-N87 cells (MTT); assay type: cell-based, human; details: for pIC50: Homo sapiens, read-out: NCI-N87 IC50
Protocol: as §1

HT29 cells = assay: Inhibitory activity on HT29 cells (MTT); assay type: cell-based, human; details: for pIC50: Homo sapiens, read-out: HT29 IC50
Protocol: as §1

[3] = Pharmacokinetic test - mice; assay type: in vivo, Balb/c mice; details: mouse, 3 mg/kg, Mice PK, IV, 3 mpk, single injection, plasma
Protocol: Experimental objective: To evaluate the pharmacokinetic characteristics of the compound of the present application in mice.
Balb/c mice (purchased from Beijing Vital River) were randomly divided, 12 mice/group, half male and half female, and were injected once with a sample (10% DMSO-90% (20% 2-hydroxypropyl-β-cyclodextrin-physiological saline), diluted according to the dose). Cross samples of plasma were respectively taken before administration, and at 5 min, 30 min, 1 h, 2 h, 4 h, 6 h, 8 h, 10 h, and 24 h after administration. The sample concentration in plasma was determined by LC-MS method, and pharmacokinetic parameters were calculated (see Table 3). Table 3 Pharmacokinetic characteristics of the compound of the present application in mice

Row | SMILES | MDA-MB-468 Inh.max (MDA-MB-468 cells; MDA-MB-468 cells, 72 h, MTT) [%] | AUC(0-inf) [1] [ng·h/mL] | Cmax [1] [ng/mL] | clearance [1] [mL/min/kg] | half-life [1] [h] | Vd [1] [L/kg] | safety [2] | NCI-N87 Inh.max (NCI-N87 cells; NCI-N87 cells, 72 h, MTT) [%] | HT29 Inh.max (HT29 cells; HT29 cells, 72 h, MTT) [%] | also measured
1 | [2H]C1([2H])OC(=O)[C@](O)(CC)c2cc3n(c(=O)c21)Cc1c-3nc2ccc(O)cc2c1CC [Compound A-9] | >80 | 99.5 | 288 | 167 | 1.35 | 19.5 | better safety | >80 | >90 | pIC50 (MDA-MB-468 cells; MDA-MB-468, 72 h): > 8.00; pIC50 (HCT116 cells; HCT-116, 72 h): > 8.00; pIC50 (NCI-N87 cells; NCI-N87, 72 h): > 8.00; pIC50 (HT29 cells; HT-29, 72 h): > 8.00
2 | [2H]C1([2H])OC(=O)[C@](O)(CC)c2cc3n(c(=O)c21)Cc1c-3nc2cc(F)c(C)c3c2c1[C@@H](N)CC3 [Compound A-11] | >80 | 135 | 215 | 381 | 0.91 | 30.1 | better safety | >70 | >90 | pIC50 (MDA-MB-468 cells; MDA-MB-468 cells, 72 h, MTT, n=3): > 8.00; AUC(0-inf) [3]: 321 ng·h/mL; Cmax [3]: 902 ng/mL; clearance [3]: 156 mL/min/kg; half-life [3]: 1.19 h; Vd ([3]; read-out: Vz): 16 L/kg; pIC50 (HCT116 cells; HCT-116, HCT116 cells, 72 h, MTT, n=3): > 8.00; pIC50 (NCI-N87 cells; NCI-N87 cells, 72 h, MTT, n=3): > 8.00; pIC50 (HT29 cells; HT-29, HT29 cells, 72 h, MTT, n=3): > 8.00
